Assay results as given in ChEMBL document CHEMBL5390236, “Biological production of epicoccamide-aglycone and its cytotoxicity” (Bioorg Med Chem Lett, 2023).
In brackets after ≈: the same amount, converted by molar mass. Activity calls are given as the source filed them. The rule behind the calls is not given here.

Key:
[1] = Cytotoxicity against human WI-38 cells assessed as reduction in cell population to midpoint between values of non-treated control and lowest population by MTT assay; assay type: toxicity, cell-based
HeLa [2] = assay: Cytotoxicity against human HeLa cells assessed as reduction in cell population by MTT assay relative to control; assay type: functional
Epicoccum nigrum [3] = assay: Antifungal activity against Epicoccum nigrum deltaepcB assessed as reduction in fungal growth at 80 ug by paper disk assay; assay type: functional, organism-based; details: dose 80.0 µg
Saccharomyces cerevisiae = assay: Antifungal activity against Saccharomyces cerevisiae assessed as reduction in fungal growth at 80 ug by paper disk assay; assay type: functional, organism-based; details: dose 80.0 µg
Epicoccum nigrum [4] = assay: Antifungal activity against wild type Epicoccum nigrum assessed as reduction in fungal growth at 80 ug by paper disk assay; assay type: functional, organism-based; details: dose 80.0 µg
Cryptococcus neoformans = assay: Antifungal activity against Cryptococcus neoformans assessed as reduction in fungal growth at 80 ug by paper disk assay; assay type: functional, organism-based; details: dose 80.0 µg
Escherichia coli = assay: Antibacterial activity against Escherichia coli; assay type: functional, organism-based
Staphylococcus aureus = assay: Antibacterial activity against Staphylococcus aureus; assay type: functional
HeLa [5] = assay: Cytotoxicity against human HeLa cells assessed as inhibition in cell proliferation at 10 to 100 uM by MTT assay; assay type: functional, cell-based; details: dose 10-100 µM
WI-38 = assay: Cytotoxicity against human WI-38 cells assessed as inhibition in cell proliferation at 10 to 100 uM by MTT assay; assay type: toxicity, cell-based; details: wi-38, 100 µM, dose 10-100 µM
HeLa [6] = assay: Cytotoxicity against human HeLa cells assessed as reduction in cell population to midpoint between values of non-treated control and lowest population by MTT assay; assay type: functional, cell-based
HeLa [7] = assay: Cytotoxicity against human HeLa cells assessed as reduction in cell population to half by MTT assay; assay type: functional, cell-based
[8] = Cytotoxicity against human WI-38 cells assessed as reduction in cell population to half by MTT assay; assay type: toxicity, cell-based
[9] = Cytotoxicity against human WI-38 cells assessed as reduction in cell population by MTT assay relative to control; assay type: toxicity, cell-based
HeLa [10] = assay: Cytotoxicity against human HeLa cells assessed as relative cell population at 50 uM by MTT assay relative to control; assay type: functional
HeLa [11] = assay: Cytotoxicity against human HeLa cells assessed as relative cell population at 100 uM by MTT assay relative to control; assay type: functional
HeLa [12] = assay: Cytotoxicity against human HeLa cells assessed as inhibition in cell growth at 200 uM by MTT assay; assay type: functional, cell-based
[13] = Cytotoxicity against human WI-38 cells assessed as inhibition in cell growth at 100 uM by MTT assay relative to control; assay type: toxicity, cell-based

Compound	EC50 [1] [µM]	Emax (HeLa [2]) [%]	Activity (Epicoccum nigrum [3])	Activity (Saccharomyces cerevisiae)	Activity (Epicoccum nigrum [4])	Activity (Cryptococcus neoformans)	Activity (Escherichia coli)	MIC (Staphylococcus aureus) [µg/mL]	inhibition (HeLa [5])	Activity (WI-38)	EC50 (HeLa [6]) [µM]	IC50 (HeLa [7]; read-out: IC50) [µM]	IC50 [8] [µM]	Emax [9] [%]	Activity (HeLa [10]) [%]	Activity (HeLa [11]) [%]	inhibition (HeLa [12])	inhibition at 100 µM [13] [%]	IC50 (HeLa [7]) [µM]
C[C@@H](CCCCCCCCCCCCCCO)C(=O)C1=C(O)N(C)[C@@H](C)C1=O	9.1	23	inactive	Active	inactive	inactive	inactive	1 (≈ 2.53 µM)	Active	Toxic	12	19	15	20	–	–	–	–	–
C[C@@H](CCCCCCCCC(=O)CCCCCCCCC[C@H](O)CO[C@@H]1O[C@H](CO)[C@@H](O)[C@H](O)[C@@H]1O)/C(O)=C1/C(=O)N[C@@H](Cc2ccc(O)cc2)C1=O	–	–	–	–	–	–	–	7.2 (≈ 9.6 µM)	–	–	–	–	–	–	–	–	–	–	–
C[C@@H](CCCCCCCCCCCCCCO[C@@H]1O[C@H](CO)[C@@H](O)[C@H](O)[C@@H]1O)C(=O)C1=C(O)N(C)[C@@H](C)C1=O	34	3.2	inactive	Active	inactive	inactive	inactive	64 (≈ 115 µM)	–	–	70	76	38	4.6	88	14	Active	–	–
COc1cccc2c1C(=O)c1c(O)c3c(c(O)c1C2=O)C[C@@](O)(C(=O)CO)C[C@@H]3O[C@H]1C[C@H](N)[C@H](O)[C@H](C)O1 [DOXORUBICIN]	–	15	–	–	–	–	–	–	–	–	4.3	–	–	–	–	–	–	< 10	5.1
C[C@@H](CCCCCCCCC(=O)CCCCCCCCC[C@H](O)CO)/C(O)=C1/C(=O)N[C@@H](Cc2ccc(O)cc2)C1=O	–	–	–	–	–	–	–	2.8 (≈ 4.76 µM)	–	–	–	–	–	–	–	–	–	–	–
